Consider six compounds from ChEMBL document CHEMBL3272269, “Synthesis and antileukemic activities of furanyl, pyranyl, and ribosyl derivatives of 4-(3,3-dimethyl-1-triazeno)imidazole-5-carboxamide and 3-(3,3-dimethyl-1-triazeno)pyrazole-4-carboxamide” (J Med Chem, 1979).

The source made the active and inactive calls. No cut-off for these calls is given here.

Series [1] has as its system Mus musculus. Nature of the series: Toxicity in mouse L1210 cells allografted mouse assessed as reduction in body weight at 200 mg/kg administered on day 1 followed by 5 injections with 1 day interval. More on the design: dose 200 mg/kg. In kind it is organism-based. Conditions: in vivo, 24 h.
Series [2] deals with L1210. Description: Antitumor activity against mouse L1210 cells allografted in mouse assessed as survival at 200 mg/kg administered on day 1 followed by 5 injections with 1 day interval. More on the design: dose 200 mg/kg. It counts as functional, organism-based.
The subject of series [3] is L1210. Description: Antitumor activity against mouse L1210 cells allografted in mouse assessed as increase in survival at 200 mg/kg administered on day 1 followed by 5 injections with 1 day interval relative to control. It counts as functional.
For series [4], the system named is Mus musculus. Nature of the series: Toxicity in mouse L1210 cells allografted BDF1 mouse assessed as reduction in body weight at 400 mg/kg administered on day 1 followed by 3 injections with 4 day interval. The arrangement: dose 400 mg/kg. In kind it is organism-based. Conditions: in vivo, 96 h.
Series [5] deals with Mus musculus. Description: Toxicity in mouse L1210 cells allografted BDF1 mouse assessed as reduction in body weight at 200 mg/kg administered on day 1 followed by 3 injections with 4 day interval. The arrangement: dose 200 mg/kg. The conditions noted are these: in vivo, 96 h. In kind it is organism-based.
Series [6] concerns Mus musculus. Nature of the series: Toxicity in mouse L1210 cells allografted BDF1 mouse assessed as reduction in body weight at 100 mg/kg administered on day 1 followed by 3 injections with 4 day interval. It counts as organism-based. More on the design: dose 100 mg/kg. The conditions noted are these: in vivo, 96 h.
Series [7] has as its system L1210. Nature of the series: Antitumor activity against mouse L1210 cells allografted in mouse assessed as survival at 400 mg/kg administered on day 1 followed by 3 injections with 4 day interval. It counts as functional, organism-based. More on the design: dose 400 mg/kg.
The subject of series [8] is L1210. Description: Antitumor activity against mouse L1210 cells allografted in mouse assessed as survival at 200 mg/kg administered on day 1 followed by 3 injections with 4 day interval. It counts as functional, organism-based. More on the design: dose 200 mg/kg.
The subject of series [9] is L1210. Description: Antitumor activity against mouse L1210 cells allografted in mouse assessed as survival at 100 mg/kg administered on day 1 followed by 3 injections with 4 day interval. It counts as functional, organism-based. More on the design: dose 100 mg/kg.
Series [10] concerns L1210. Description: Antitumor activity against mouse L1210 cells allografted in mouse assessed as increase in survival at 400 mg/kg administered on day 1 followed by 3 injections with 4 day interval relative to control. It counts as functional.
Series [11] relates to L1210. Nature of the series: Antitumor activity against mouse L1210 cells allografted in mouse assessed as increase in survival at 200 mg/kg administered on day 1 followed by 3 injections with 4 day interval relative to control. It counts as functional.
Series [12] relates to L1210. Nature of the series: Antitumor activity against mouse L1210 cells allografted in mouse assessed as increase in survival at 100 mg/kg administered on day 1 followed by 3 injections with 4 day interval relative to control. It counts as functional.
For series [13], the system named is Mus musculus. Nature of the series: Toxicity in mouse L1210 cells allografted BDF1 mouse assessed as reduction in body weight at 200 mg/kg administered on day 1 followed by 9 injections with 1 day interval. In kind it is organism-based. The arrangement: dose 200 mg/kg. The conditions noted are these: in vivo, 24 h.
Series [14] relates to L1210. Nature of the series: Antitumor activity against mouse L1210 cells allografted in mouse assessed as survival at 200 mg/kg administered on day 1 followed by 9 injections with 1 day interval. It counts as functional, organism-based. More on the design: dose 200 mg/kg.
Series [15] has as its system L1210. Description: Antitumor activity against mouse L1210 cells allografted in mouse assessed as increase in survival at 200 mg/kg administered on day 1 followed by 9 injections with 1 day interval relative to control. In kind it is functional.
The test system of series [16] is Mus musculus. Nature of the series: Toxicity in mouse L1210 cells allografted BDF1 mouse assessed as reduction in body weight at 180 mg/kg administered on day 1 followed by 9 injections with 1 day interval. In kind it is organism-based. The conditions noted are these: in vivo, 24 h. The arrangement: dose 180 mg/kg.
Series [17] relates to Mus musculus. Nature of the series: Toxicity in mouse L1210 cells allografted BDF1 mouse assessed as reduction in body weight at 109 mg/kg administered on day 1 followed by 9 injections with 1 day interval. It counts as organism-based. More on the design: dose 109 mg/kg. The conditions noted are these: in vivo, 24 h.
Series [18] has as its system Mus musculus. Description: Toxicity in mouse L1210 cells allografted BDF1 mouse assessed as reduction in body weight at 65 mg/kg administered on day 1 followed by 9 injections with 1 day interval. In kind it is organism-based. The arrangement: dose 65 mg/kg. The conditions noted are these: in vivo, 24 h.
Series [19] relates to Mus musculus. Nature of the series: Toxicity in mouse L1210 cells allografted mouse assessed as reduction in body weight at 100 mg/kg administered on day 1 followed by 5 injections with 1 day interval. In kind it is organism-based. More on the design: dose 100 mg/kg. Conditions: in vivo, 24 h.
The test system of series [20] is Mus musculus. Nature of the series: Toxicity in mouse L1210 cells allografted mouse assessed as reduction in body weight at 400 mg/kg administered on day 1 followed by 5 injections with 1 day interval. It counts as organism-based. More on the design: dose 400 mg/kg. Conditions: in vivo, 24 h.
Series [21] deals with L1210. Nature of the series: Antitumor activity against mouse L1210 cells allografted in mouse assessed as survival at 100 mg/kg administered on day 1 followed by 5 injections with 1 day interval. It counts as functional, organism-based. More on the design: dose 100 mg/kg.
Series [22] has as its system L1210. Description: Antitumor activity against mouse L1210 cells allografted in mouse assessed as survival at 400 mg/kg administered on day 1 followed by 5 injections with 1 day interval. In kind it is functional, organism-based. More on the design: dose 400 mg/kg.
Series [23] concerns L1210. Description: Antitumor activity against mouse L1210 cells allografted in mouse assessed as increase in survival at 100 mg/kg administered on day 1 followed by 5 injections with 1 day interval relative to control. It counts as functional.
For series [24], the system named is L1210. Nature of the series: Antitumor activity against mouse L1210 cells allografted in mouse assessed as increase in survival at 400 mg/kg administered on day 1 followed by 5 injections with 1 day interval relative to control. It counts as functional.
In series [25] the test system is Mus musculus. Description: Toxicity in mouse L1210 cells allografted mouse assessed as reduction in body weight at 50 mg/kg administered on day 1 followed by 5 injections with 1 day interval. The conditions noted are these: in vivo, 24 h. More on the design: dose 50 mg/kg. It counts as organism-based.
Series [26] relates to L1210. Description: Antitumor activity against mouse L1210 cells allografted in mouse assessed as survival at 50 mg/kg administered on day 1 followed by 5 injections with 1 day interval. In kind it is functional, organism-based. More on the design: dose 50 mg/kg.
The test system of series [27] is L1210. Nature of the series: Antitumor activity against mouse L1210 cells allografted in mouse assessed as increase in survival at 50 mg/kg administered on day 1 followed by 5 injections with 1 day interval relative to control. In kind it is functional.

`CC(=O)OC[C@H]1O[C@@H](n2ncc(C(N)=O)c2/N=N/N(C)C)[C@H](OC(C)=O)[C@@H]1OC(C)=O`: the Activity in the series on Mus musculus [1] came out at 2.3 g. Besides, the outcome with L1210 [2] was Active. Also, the T/C – broadly, the ratio of treated to control – with L1210 [3] is given as 122%.
With `CN(C)/N=N/c1c(C(N)=O)cnn1C1CCCCO1` (stereo not given), the Activity is 3.5 g with Mus musculus [4], 3.1 g with Mus musculus [5] and 2.2 g in the series on Mus musculus [6]. For the same compound, the result in the series on L1210 [7], in the series with L1210 [8] and in the series with L1210 [9] was Active. Besides, the T/C with L1210 [10] came out at 123%; in the series on L1210 [11], 117%; with L1210 [12], 107%.
Take `CC(=O)OC[C@H]1O[C@@H](n2cc(C(N)=O)c(/N=N/N(C)C)n2)[C@H](OC(C)=O)[C@@H]1OC(C)=O`: the Activity in the series on Mus musculus [4] was 1.1 g; with Mus musculus [5], 1.8 g; in the series on Mus musculus [6], 0.1 g; in the series on Mus musculus [13] it was 2.8 g. Besides, the outcome with L1210 [7], with L1210 [8], in the series on L1210 [9] and in the series with L1210 [14] was Active. Besides, the T/C in the series with L1210 [10] stood at 89%; with L1210 [11], 105%; with L1210 [12] it was 100%; with L1210 [15] it was 107%.
Consider `CN(C)/N=N/c1[nH]ncc1C(N)=O`, for which the Activity with Mus musculus [16] was 4.9 g; in the series with Mus musculus [17] it was 3.7 g; in the series on Mus musculus [18], 3.2 g.
For the compound `CC(=O)OC[C@H]1O[C@@H](n2cnc(/N=N/N(C)C)c2C(N)=O)[C@H](OC(C)=O)[C@@H]1OC(C)=O`, the Activity in the series with Mus musculus [1] is on record as 1.6 g; in the series with Mus musculus [19], 1.5 g; in the series with Mus musculus [20], 2.2 g. Besides, the outcome in the series with L1210 [2], in the series on L1210 [21] and with L1210 [22] was Active. The T/C with L1210 [3] stood at 124%; in the series on L1210 [23] it was 123%; in the series with L1210 [24] it was 157%.
Turning to `CN(C)/N=N/c1nn(C2CCCO2)cc1C(N)=O` (stereo not given), the Activity is listed as 3.7 g in the series on Mus musculus [1], 2.3 g with Mus musculus [19] and 1.8 g with Mus musculus [25]. Also, the result in the series on L1210 [2], in the series with L1210 [21] and with L1210 [26] was Active. The results for the T/C with L1210 [3], with L1210 [23] and with L1210 [27] were 134%, 141% and 129%, respectively.
